According to patent US8697145B2, “Substances having body mass redistribution properties” (Horizon Science Pty. Ltd., priority 2005, dated 2014):

Assays:
[1] = test system: Sprague Dawley rats; experiment: Body mass distribution of rats on high fat diet with tea treatments (DEXA); type: in vivo; details: at 11 and 18 weeks, vs water control
Source text: Animals and treatments: Male Sprague Dawley rats (n=48) were purchased from the Animal Resource Centre (Canning Vale, WA) at 3 weeks of age. Animals were allowed to acclimate for 1 week on Purina rat chow and water. From 4 weeks of age, all animals were provided with a semi-synthetic, high fat diet (15% fat, Table 6) (Specialty Feeds, Glen Forrest, WA) and administered one of four fluid treatments: Green Tea, Black Tea, Epigallocatechin Gallate (EGCG) or water. Tea and tea extracts were given as 100% of their fluid intake. Rats were maintained on the high fat diet and tea treatment until week 29. Food and fluid intakes were measured daily and body weights recorded weekly.
Green and Black tea: Green and Black tea bags (Dilmah Natural Green Tea™ and Dilmah Black Tea™) were purchased from a local retail outlet. Ten tea bags (approximately 2 g tea leaves/bag) were steeped in 1 liter of boiling tap water in a covered container for 3 minutes. Tea bags were then expelled of excess tea and the tea preparations made up to a 2 liter volume with cold tap water. This approximated to 1 tea bag per 200 ml of water. […]
Dual Energy X-ray Absorptiometry (DEXA): Body composition was determined by dual energy x-ray absorptiometry using a Hologic QDR-4000/W Absorptiometer. […] Fat, lean and total mass was measured, along with the percentage fat ratio and bone mineral content. […]

[2] = test system: rats; details: treated rats (Zorad et al. 1995); cited from earlier work
[3] = molecular target: α-glucosidase; experiment: α-Glucosidase inhibition assay; type: biochemical
Protocol: α-Glucosidase: Molasses powder sample was solubilized in water prior to use in this assay. Fucoidan was included as a positive control, and was also solubilized in water.
Glucosidase enzyme was solubilized in acetate buffer (50 mM, pH 4.5) at a concentration of 0.7 mg/mL. This provided a final concentration of 0.2 U/mL. To a 96-well plate, 50 μL of enzyme was added to each well. A corresponding set of wells was also included, in which acetate buffer was added instead of enzyme. Sample/controls were then added to the wells (5 μL), in triplicate, followed by the substrate 4-Nitrophenyl-α-D-glucopyranoside (final concentration 2 mM). The plate was covered, shaken and then incubated at 37° C. for 30 minutes. The reaction was stopped with the addition of 0.2 M Na2CO3 (100 μL/well). Absorbance was measured at 405 nm, using a Victor^2 plate reader.
The absorbance of the wells containing sample, substrate, and buffer were subtracted from the corresponding wells containing the glucosidase enzyme and the percent inhibition by the samples was calculated compared to the solvent controls.

O=C(O[C@@H]1Cc2c(O)cc(O)cc2O[C@@H]1c1cc(O)c(O)c(O)c1)c1cc(O)c(O)c(O)c1 [EGCG, (−)-epigallocatechin-3-gallate]
grams of lean mass [1]: significantly higher

CCCCc1nc(Cl)c(CO)n1Cc1ccc(-c2ccccc2-c2nn[nH]n2)cc1 [losartan]
adipocyte size [2]: reduction

Fucoidan
IC50 (α-glucosidase) [3]: 14 mg/L
% Inhibition of α-glucosidase ([3]; 4.7 μg/mL): 5.7 ± 3.1%
% Inhibition of α-glucosidase ([3]; 9.4 μg/mL): 19.3 ± 2.7%
% Inhibition of α-glucosidase ([3]; 18.8 μg/mL): 73.5 ± 7.5%
% Inhibition of α-glucosidase ([3]; 37.5 μg/mL): 97.4 ± 5.9%
